# Measurements published in patent publication US9321718B2 (CHROMA THERAPEUTICS LTD., priority 2010, dated 2016).
# Read-outs that look alike come from different tables or passages of the source.
# Columns and labels:
# [1] = system: TNF-α levels in LPS-stimulated human whole blood; experiment: LPS-stimulation of human whole blood (TNF-α levels); format: cell-based; conditions: Homo sapiens; IC50 range; TNF-α after LPS 100 ng/ml, 6 hours
# Method: Whole blood is taken by venous puncture using heparinised vacutainers (Becton Dickinson) and diluted in an equal volume of RPMI1640 tissue culture media (Sigma). 100 μl is then plated in V-bottomed 96 well tissue culture treated plates. 2 Hours after the addition of the inhibitor in 100 μl of RPMI1640 media, the blood is stimulated with LPS (E. Coli strain 005:B5, Sigma) at a final concentration of 100 ng/ml and incubated at 37° C. in 5% CO2 for 6 hours. TNF-α levels are measured from cell-free supernatants by sandwich ELISA (R&D Systems #QTA00B).
# [2] = molecular target: T1, human recombinant his-tagged HSP90α (Homo sapiens, UniProt P07900); experiment: HSP90 enzyme assay (HTRF, competition with biotinylated Geldanamycin); format: binding; conditions: IC50 range; read-out: Enzyme Assay
# T1 construct: purchased Prospec Technogene #HSP90
# Text: An HTRF (homogeneous time resolved fluorescence) assay is used to measure the interaction of the compounds with HSP90. The assay measures binding of biotinylated Geldanamycin (bio-GM; Biomol, #EI-341, lot: A9199a) to human recombinant his-tagged HSP90α (HSP90; Prospec Technogene, #HSP90, lot: 260HSP9001). A signal is generated by fluorescence resonance energy transfer from an Europium-cryptate labeled anti-his antibody (anti-his-K; Cisbio International, #61HISKLA, lot: 33V) via the HSP90-GM-biotin complex to a fluorescence acceptor (allophycocyanin) linked to streptavidin (SA-XL; Cisbio International, #610SAXLB, lot: 089).
# Unlabeled GM or compounds compete with the bio-GM for binding to HSP90 resulting in reduced fluorescence energy transfer/assay signal.
# A preformed (1 hour incubation) complex of HSP90 with the anti-his-K is added to the compound solution in a 384 well microplate (Corning, #3710) and incubated for 15 minutes. A preformed (1 hour incubation) complex of bio-GM with the SA-XL is added to the wells and incubated for 20 hours. All incubations are performed at room temperature. The final assay volume is 50 μl/well. The final concentrations in the assay are: 50 mM Hepes pH 7.3, 50 mM NaCl, 100 mM KF, 1 mM EDTA, 1 mM DTT, 0.1% Triton-X-100, […] HSP90, 40 nM SA-XL, 40 nM bio-GM. Test compounds are dissolved in DMSO, prediluted in assay buffer and tested at a final concentration between 5000 nM and 0.3 nM. The resulting DMSO concentration is 0.5% and included in all controls. High controls are without test compounds, low controls without test compounds, without HSP90 and without bio-GM. As a reference inhibitor unlabeled GM is used in the same concentrations as the test compounds.
# Inhibition is calculated compared to the assay controls using an Excel spreadsheet (Microsoft). IC50 values are calculated by non-linear least squares fitting to the standard dose-response model using GraphPad Prism (GraphPad Software Inc).
# [3] = system: TNFα release from LPS stimulated THP-1 (hCE-1 +ve) cells; experiment: LPS-stimulation of THP-1 cells (TNF-α release); format: cell-based, human; conditions: IC50 range, TNF-α after LPS 1 μg/ml, 6 hours, read-out: THP-1 Assay
# Method: THP-1 cells are plated in […] at a density of 4×10^4 cells/well in V-bottomed 96 well tissue culture treated plates and incubated at 37° C. in 5% CO2 for 16 hours. 2 Hours after the addition of the inhibitor in 100 μl of tissue culture media, the cells are stimulated with LPS (E. Coli strain 005:B5, Sigma) at a final concentration of 1 μg/ml and incubated at 37° C. in 5% CO2 for 6 hours. TNF-α levels are measured from cell-free supernatants by sandwich ELISA (R&D Systems #QTA00B).
Compound,IC50 [1],IC50 [2],"IC50 ([3]; Homo sapiens, THP-1)",IC50 [3]
"CC(C)c1cc(C(=O)N2CCC(NC(C)(C)C(=O)OC3CCCC3)CC2)c(O)cc1O [Example 2, cyclopentyl N-(1-{[2,4-dihydroxy-5-(propan-2-yl)phenyl]carbonyl}piperidin-4-yl)-2-methylalaninate]",100 to 1000 nM,< 100 nM,100 to 1000 nM,
"CC(C)c1cc(C(=O)N2CCC(N[C@H](C(=O)OC3CCCC3)c3ccccc3)CC2)c(O)cc1O [Example 4, cyclopentyl (2S)-[(1-{[2,4-dihydroxy-5-(propan-2-yl)phenyl]carbonyl}piperidin-4-yl)amino](phenyl)ethanoate]",> 1000 nM,< 100 nM,> 1000 nM,
"CC(C)c1cc(C(=O)N2CCC(N[C@@H](C)C(=O)OC(C)(C)C)CC2)c(O)cc1O [Example 8, tert-butyl N-(1-{[2,4-dihydroxy-5-(propan-2-yl)phenyl]carbonyl}piperidin-4-yl)-L-alaninate]",,< 100 nM,> 1000 nM,
"CC(C)c1cc(C(=O)N2CCC(N[C@@H](COC(C)(C)C)C(=O)OC(C)(C)C)CC2)c(O)cc1O [Example 11, tert-butyl O-tert-butyl-N-(1-{[2,4-dihydroxy-5-(propan-2-yl)phenyl]carbonyl}piperidin-4-yl)-L-serinate]",,< 100 nM,> 1000 nM,
"CC(C)C[C@@H](NC1CCN(C(=O)c2cc(C(C)C)c(O)cc2O)CC1)C(=O)OC1CCCC1 [Example 12, cyclopentyl N-(1-{[2,4-dihydroxy-5-(propan-2-yl)phenyl]carbonyl}piperidin-4-yl)-D-leucinate]",,< 100 nM,> 1000 nM,
"CC(C)c1cc(C(=O)N2CCC(N[C@H](C(=O)OC3CCCC3)C3CCCCC3)CC2)c(O)cc1O [Example 14, cyclopentyl (2S)-cyclohexyl[(1-{[2,4-dihydroxy-5-(propan-2-yl)phenyl]carbonyl}piperidin-4-yl)amino]ethanoate]",,100 to 1000 nM,> 1000 nM,
"CC(C)c1cc(C(=O)N2CCC(N[C@@H](Cc3ccccc3)C(=O)OC(C)(C)C)CC2)c(O)cc1O [Example 16, tert-butyl N-(1-{[2,4-dihydroxy-5-(propan-2-yl)phenyl]carbonyl}piperidin-4-yl)-L-phenylalaninate]",,< 100 nM,> 1000 nM,
"CC(C)c1cc(C(=O)N2CCC(N[C@@H](CO)C(=O)OC3CCCC3)CC2)c(O)cc1O [Example 18, cyclopentyl N-(1-{[2,4-dihydroxy-5-(propan-2-yl)phenyl]carbonyl}piperidin-4-yl)-L-serinate]",,< 100 nM,100 to 1000 nM,
"CC(C)C[C@@H](NC1CCN(C(=O)c2cc(C(C)C)c(O)cc2O)CC1)C(=O)OC(C)(C)C [Example 19, tert-butyl N-(1-{[2,4-dihydroxy-5-(propan-2-yl)phenyl]carbonyl}piperidin-4-yl)-D-leucinate]",,< 100 nM,> 1000 nM,
"CC(C)C[C@H](NCC1CCN(C(=O)c2cc(C(C)C)c(O)cc2O)CC1)C(=O)OC(C)(C)C [Example 24, tert-butyl N-[(1-{[2,4-dihydroxy-5-(propan-2-yl)phenyl]carbonyl}piperidin-4-yl)methyl]-L-leucinate]",,< 100 nM,> 1000 nM,
"CC(C)c1cc(C(=O)N2CCC(CN[C@@H](Cc3ccccc3)C(=O)OC(C)(C)C)CC2)c(O)cc1O [Example 25, tert-butyl N-[(1-{[2,4-dihydroxy-5-(propan-2-yl)phenyl]carbonyl}piperidin-4-yl)methyl]-L-phenylalaninate]",,< 100 nM,> 1000 nM,
"CC(C)c1cc(C(=O)N2CCC(CN[C@@H](C)C(=O)OC(C)(C)C)CC2)c(O)cc1O [Example 26, tert-butyl N-[(1-{[2,4-dihydroxy-5-(propan-2-yl)phenyl]carbonyl}piperidin-4-yl)methyl]-L-alaninate]",,< 100 nM,> 1000 nM,
"CC(C)C[C@@H](NCC1CCN(C(=O)c2cc(C(C)C)c(O)cc2O)CC1)C(=O)OC(C)(C)C [Example 27, tert-butyl N-[(1-{[2,4-dihydroxy-5-(propan-2-yl)phenyl]carbonyl}piperidin-4-yl)methyl]-D-leucinate]",,< 100 nM,> 1000 nM,
"CC(C)c1cc(C(=O)N2CCC(CN[C@H](C(=O)OC3CCCC3)C3CCCCC3)CC2)c(O)cc1O [Example 30, cyclopentyl (2S)-cyclohexyl{[(1-{[2,4-dihydroxy-5-(propan-2-yl)phenyl]carbonyl}piperidin-4-yl)methyl]amino}ethanoate]",,100 to 1000 nM,> 1000 nM,
"CC(C)c1cc(C(=O)N2CCC(CN[C@@H](COC(C)(C)C)C(=O)OC(C)(C)C)CC2)c(O)cc1O [Example 35, tert-butyl O-tert-butyl-N-[(1-{[2,4-dihydroxy-5-(propan-2-yl)phenyl]carbonyl}piperidin-4-yl)methyl]-L-serinate]",,< 100 nM,> 1000 nM,
"CC(C)c1cc(C(=O)N2CCC(CN[C@@H](CO)C(=O)OC(C)(C)C)CC2)c(O)cc1O [Example 37, tert-butyl N-[(1-{[2,4-dihydroxy-5-(propan-2-yl)phenyl]carbonyl}piperidin-4-yl)methyl]-L-serinate]",,< 100 nM,100 to 1000 nM,
"CC(C)c1cc(C(=O)N2CCC(CCN[C@@H](C)C(=O)OC3CCCC3)CC2)c(O)cc1O [Example 39, cyclopentyl N-[2-(1-{[2,4-dihydroxy-5-(propan-2-yl)phenyl]carbonyl}piperidin-4-yl)ethyl]-L-alaninate]",,< 100 nM,< 100 nM,
"CC(C)C[C@H](NCCC1CCN(C(=O)c2cc(C(C)C)c(O)cc2O)CC1)C(=O)OC(C)(C)C [Example 42, tert-butyl N-[2-(1-{[2,4-dihydroxy-5-(propan-2-yl)phenyl]carbonyl}piperidin-4-yl)ethyl]-L-leucinate]",,< 100 nM,100 to 1000 nM,
"CC(C)c1cc(C(=O)N2CCC(CCN[C@H](C(=O)OC3CCCC3)C(C)C)CC2)c(O)cc1O [Example 46, cyclopentyl N-[2-(1-{[2,4-dihydroxy-5-(propan-2-yl)phenyl]carbonyl}piperidin-4-yl)ethyl]-L-valinate]",,< 100 nM,> 1000 nM,
"CC(C)c1cc(C(=O)N2CCC(CCN[C@@H](CO)C(=O)OC3CCCC3)CC2)c(O)cc1O [Example 47, cyclopentyl N-[2-(1-{[2,4-dihydroxy-5-(propan-2-yl)phenyl]carbonyl}piperidin-4-yl)ethyl]-L-serinate]",,< 100 nM,100 to 1000 nM,
"CC(C)c1cc(C(=O)N2CCC(CCN[C@H](C(=O)OC3CCCC3)C3CCCCC3)CC2)c(O)cc1O [Example 48, cyclopentyl (2S)-cyclohexyl{[2-(1-{[2,4-dihydroxy-5-(propan-2-yl)phenyl]carbonyl}piperidin-4-yl)ethyl]amino}ethanoate]",,100 to 1000 nM,> 1000 nM,
"CC(C)c1cc(C(=O)N2CCC(CCN[C@H](C(=O)OC3CCCC3)c3ccccc3)CC2)c(O)cc1O [Example 51, cyclopentyl (2S)-{[2-(1-{[2,4-dihydroxy-5-(propan-2-yl)phenyl]carbonyl}piperidin-4-yl)ethyl]amino}(phenyl)ethanoate]",,< 100 nM,100 to 1000 nM,
CC(C)C[C@H](NCCCNCC1CCN(C(=O)c2cc(C(C)C)c(O)cc2O)CC1)C(=O)OC1CCCC1 [Example 126],,< 100 nM,> 1000 nM,
"cyclopentyl N-[(1-{[2,4-dihydroxy-5-(propan-2-yl)phenyl]carbonyl}piperidin-4-yl)methyl]-L-valinate [Example 29]",,< 100 nM,,> 1000 nM
